Assay results taken from patent US6756359B2, “C12 modified erythromycin macrolides and ketolides having antibacterial activity” (Chiron Corporation, priority 2001, dated 2004).
Values after ≈ are worked out from the molar mass of the structure shown.

Key:
Experiment in all cases: Antibacterial activity in vitro, MIC by broth microdilution
[1] = tested on: S. pneumoniae Stpn_Erm 6849; assay type: cell-based, Streptococcus pneumoniae; details: unit assumed
Procedure, shortened: (§1)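 Test agents were dissolved in methanol and serially diluted two-fold in cation-adjusted Mueller-Hinton broth, which for S. pneumoniae carried 2-5% lysed horse blood. Plates were inoculated to 3×10^5–7×10^5 CFU/mL and held at 35° C. for 18-24 hours, with CO2 at 5-10% for pneumococci.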

[2] = tested on: S. pneumoniae Stpn_280-962 Pen S; assay type: cell-based, Streptococcus pneumoniae
Procedure, shortened: as §1

S. pneumoniae Stpn_49619 = assay type: cell-based, Streptococcus pneumoniae
Procedure, shortened: as §1

[3] = tested on: S. pneumoniae Stpn_Erm S 4297; assay type: cell-based, Streptococcus pneumoniae
Procedure, shortened: as §1

[4] = tested on: S. pneumoniae Stpn_297-749 Pen R; assay type: cell-based, Streptococcus pneumoniae
Procedure, shortened: as §1

[5] = tested on: S. pneumoniae Stpn_Mef 5654; assay type: cell-based, Streptococcus pneumoniae; details: unit assumed
Procedure, shortened: as §1

[6] = tested on: S. pneumoniae Stpn_Mef S 3427; assay type: cell-based, Streptococcus pneumoniae
Procedure, shortened: as §1

H. influenzae Hain_49247 = assay type: cell-based, Haemophilus influenzae; details: unit assumed
Procedure, shortened: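 Visible-growth inhibition defined the MIC, obtained by NCCLS broth microdilution at 35° C. over 18-24 hours with a final inoculum of 3×10^5–7×10^5 CFU/mL.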

[7] = tested on: S. epidermidis Step_14990; assay type: cell-based; details: unit assumed
Procedure, shortened: as §1

E. faecalis Enfa_29212 = assay type: cell-based; details: unit assumed
Procedure, shortened: as §1

E. coli Esco_25922 = assay type: cell-based; details: Table 3, Strain ID M: E. coli Esco_25922; unit assumed
Procedure, shortened: as §1

S. pyogenes Stpy_8668 = assay type: cell-based
Procedure, shortened: as §1

[8] = tested on: S. epidermidis Step_f50654 Pen S; assay type: cell-based; details: unit assumed
Procedure, shortened: as §1

S. aureus Stau_29213 = assay type: cell-based; details: Table 5, Strain ID A: S. aureus Stau_29213; unit assumed
Procedure, shortened: as §1

[9] = Table 3, Strain ID H: S. pneumoniae Stpn_Erm 6849
[10] = Table 3, Strain ID G: S. pneumoniae Stpn_280-962 Pen S
[11] = Table 3, Strain ID E: S. pneumoniae Stpn_49619
[12] = Table 3, Strain ID I: S. pneumoniae Stpn_Erm S 4297, unit assumed
[13] = Table 3, Strain ID F: S. pneumoniae Stpn_297-749 Pen R
[14] = Table 3, Strain ID J: S. pneumoniae Stpn_Mef 5654
[15] = Table 3, Strain ID K: S. pneumoniae Stpn_Mef S 3427, unit assumed
[16] = Table 3, Strain ID L: H. influenzae Hain_49247
[17] = Table 3, Strain ID A: S. epidermidis Step_14990
[18] = Table 3, Strain ID C: E. faecalis Enfa_29212
[19] = Table 3, Strain ID D: S. pyogenes Stpy_8668, unit assumed
[20] = Table 3, Strain ID B: S. epidermidis Step_f50654 Pen S
[21] = Table 5, Strain ID I: S. pneumoniae Stpn_Erm 6849
[22] = Table 5, Strain ID H: S. pneumoniae Stpn_280-962
[23] = Table 5, Strain ID F: S. pneumoniae Stpn_49619
[24] = Table 5, Strain ID J: S. pneumoniae Stpn_Erm S 4297
[25] = Table 5, Strain ID G: S. pneumoniae Stpn_297-749
[26] = Table 5, Strain ID K: S. pneumoniae Stpn_Mef 5654
[27] = Table 5, Strain ID M: H. influenzae Hain_49247
[28] = Table 5, Strain ID B: S. epidermidis Step_14990
[29] = Table 5, Strain ID D: E. faecalis Enfa_29212
[30] = Table 5, Strain ID E: S. pyogenes Stpy_8668
[31] = Table 5, Strain ID C: S. epidermidis Step_f50654
[32] = Table 5, Strain ID L: S. pneumoniae Stpn_Mef S 3427, unit assumed

Structure (SMILES)	MIC [1, 9] [µg/mL]	MIC [2, 10]	MIC (S. pneumoniae Stpn_49619; [11])	MIC [3, 12] [µg/mL]	MIC [4, 13]	MIC [5, 14] [µg/mL]	MIC [6, 15] [µg/mL]	MIC (H. influenzae Hain_49247; [16]) [µg/mL]	MIC [7, 17] [µg/mL]	MIC [1, 21] [µg/mL]	MIC [2, 22]	MIC (S. pneumoniae Stpn_49619; [23])	MIC [4, 25]	MIC [5, 26] [µg/mL]	MIC (H. influenzae Hain_49247; [27]) [µg/mL]	MIC [7, 28] [µg/mL]	MIC (E. faecalis Enfa_29212; [29]) [µg/mL]	MIC (S. pyogenes Stpy_8668; [30])	MIC [8, 31] [µg/mL]	MIC (S. aureus Stau_29213) [µg/mL]	other results
CC[C@H]1OC(=O)[C@H](C)C(=O)[C@H](C)[C@@H](O[C@@H]2O[C@H](C)C[C@H](N(C)C)[C@H]2O)[C@@](C)(OC)C[C@@H](C)C(=O)[C@H](C)[C@@H]2[C@@H]1OC(=O)N2CCCn1cnc(-c2ccccc2)c1 [Compound 4714]	> 50	≦0.5	≦0.5	6.25 (≈ 7.98 µM)	≦0.5	0.4 (≈ 0.511 µM)	0.1 (≈ 0.128 µM)	> 50	6.25 (≈ 7.98 µM)												MIC (E. faecalis Enfa_29212; [18]): 0.4 µg/mL (≈ 0.511 µM); MIC (E. coli Esco_25922): > 50 µg/mL; MIC (S. pyogenes Stpy_8668; [19]): 0.1 µg/mL (≈ 0.128 µM); MIC [8, 20]: 6.25 µg/mL (≈ 7.98 µM)
CC[C@H]1OC(=O)[C@H](C)C(=O)[C@H](C)[C@@H](O[C@@H]2O[C@H](C)C[C@H](N(C)C)[C@H]2O)[C@@](C)(OC)C[C@@H](C)C(=O)[C@H](C)[C@@H]2[C@@H]1OC(=O)N2CCCn1cnc2cccnc21 [Compound 4716]	> 50	≦0.5	≦0.5	25 (≈ 33 µM)	≦0.5	0.78 (≈ 1.03 µM)	0.4 (≈ 0.528 µM)	25 (≈ 33 µM)	6.25 (≈ 8.25 µM)												MIC (E. faecalis Enfa_29212; [18]): 0.78 µg/mL (≈ 1.03 µM); MIC (E. coli Esco_25922): > 50 µg/mL; MIC (S. pyogenes Stpy_8668; [19]): 0.1 µg/mL (≈ 0.132 µM); MIC [8, 20]: 12.5 µg/mL (≈ 16.5 µM)
C=C[C@]12OC(=O)N(CCCCn3cnc(-c4cccnc4)c3)[C@@H]1[C@@H](C)C(=O)[C@H](C)C[C@](C)(OC)[C@H](OC1O[C@H](C)C[C@H](N(C)C)[C@H]1O)[C@@H](C)C(=O)[C@](C)(F)C(=O)O[C@@H]2CC (stereo partly drawn) [Example 49, (3aS,4R,7S,9R,10R,11S,13R,15R,15aR)-4-ethyl-7-fluoro-11-methoxy-7,9,11,13,15-pentamethyl-2,6,8,14-tetraoxo-1-[4-(4-pyridin-3-yl-1H-imidazol-1-yl)butyl]-3a-vinyltetradecahydro-2H-oxacyclotetradecino[4,3-d][1,3]oxazol-10-yl 3,4,6-trideoxy-3-(dimethylamino)-D-xylo-hexopyranoside]										0.1 (≈ 0.119 µM)	≦0.05	≦0.05	≦0.05	0.78 (≈ 0.926 µM)	6.25 (≈ 7.42 µM)	0.2 (≈ 0.238 µM)	0.1 (≈ 0.119 µM)	≦0.05	0.2 (≈ 0.238 µM)	0.2 (≈ 0.238 µM)	MIC [3, 24]: ≦0.05; MIC ([6]; Table 5, Strain ID L: S. pneumoniae Stpn_Mef S 3427): ≦0.05

Second part, led by results:

MIC [1, 9] [µg/mL]	MIC [2, 10]	MIC (S. pneumoniae Stpn_49619; [11])	MIC [3, 12] [µg/mL]	MIC [4, 13]	MIC [5, 14] [µg/mL]	MIC [6, 15] [µg/mL]	MIC (H. influenzae Hain_49247; [16]) [µg/mL]	MIC [7, 17] [µg/mL]	MIC [1, 21] [µg/mL]	MIC [2, 22]	MIC (S. pneumoniae Stpn_49619; [23])	MIC [4, 25]	MIC [5, 26] [µg/mL]	MIC (H. influenzae Hain_49247; [27]) [µg/mL]	MIC [7, 28] [µg/mL]	MIC (E. faecalis Enfa_29212; [29]) [µg/mL]	MIC (S. pyogenes Stpy_8668; [30])	MIC [8, 31] [µg/mL]	MIC (S. aureus Stau_29213) [µg/mL]	Structure (SMILES)	other results
									0.1 (≈ 0.117 µM)	≦0.05	≦0.05	≦0.05	0.4 (≈ 0.469 µM)	6.25 (≈ 7.33 µM)	0.4 (≈ 0.469 µM)	0.2 (≈ 0.235 µM)	≦0.05	0.2 (≈ 0.235 µM)	0.4 (≈ 0.469 µM)	C=C[C@]12OC(=O)N(CCCC(C)(C)n3cnc(-c4cccnc4)c3)[C@@H]1[C@@H](C)C(=O)[C@H](C)C[C@](C)(OC)[C@H](OC1O[C@H](C)C[C@H](N(C)C)[C@H]1O)[C@@H](C)C(=O)[C@@H](C)C(=O)O[C@@H]2CC (stereo partly drawn) [Example 50, (3aS,4R,7R,9R,10R,11S,13R,15R,15aR)-4-ethyl-11-methoxy-7,9,11,13,15-pentamethyl-1-[4-methyl-4-(4-pyridin-3-yl-1H-imidazol-1-yl)pentyl]-2,6,8,14-tetraoxo-3a-vinyltetradecahydro-2H-oxacyclotetradecino[4,3-d][1,3]oxazol-10-yl 3,4,6-trideoxy-3-(dimethylamino)-D-xylo-hexopyranoside]	MIC [3, 24]: ≦0.05; MIC [6, 32]: 0.1 µg/mL (≈ 0.117 µM)
									0.2 (≈ 0.234 µM)	≦0.05	≦0.05	≦0.05	0.4 (≈ 0.467 µM)	6.25 (≈ 7.3 µM)	0.2 (≈ 0.234 µM)	0.01 (≈ 0.0117 µM)	≦0.05	0.2 (≈ 0.234 µM)	0.2 (≈ 0.234 µM)	C/C=C\[C@]12OC(=O)N(CCCCn3cnc(-c4cccnc4)c3)[C@@H]1[C@@H](C)C(=O)[C@H](C)C[C@](C)(OC)[C@H](O[C@@H]1O[C@H](C)C[C@H](N(C)C)[C@H]1O)[C@@H](C)C(=O)[C@](C)(F)C(=O)O[C@@H]2CC [Example 66, (3aS,4R,7S,9R,10R,11S,13R,15R,15aR)-4-ethyl-7-fluoro-11-methoxy-7,9,11,13,15-pentamethyl-2,6,8,14-tetraoxo-3a-[(1Z)-prop-1-enyl]-1-[4-(4-pyridin-3-yl-1H-imidazol-1-yl)butyl]tetradecahydro-2H-oxacyclotetradecino[4,3-d][1,3]oxazol-10-yl 3,4,6-trideoxy-3-(dimethylamino)-D-xylo-hexopyranoside]	MIC ([3]; Table 5, Strain ID J: S. pneumoniae Stpn_Erm S 4297, unit assumed): 0.1 µg/mL (≈ 0.117 µM); MIC [6, 32]: 0.1 µg/mL (≈ 0.117 µM)
